One experiment deals with OPM-2. The experiment is described as follows: Cell viability assay (OPM-2 10 FBS, CellTiter-Glo). The experiment is classed as cell-based, human. Conditions: OPM-2 cells. On the procedure: Cell Viability Assay (OPM-2 10 FBS)
Cells were seeded into 384-well plates at 3000 cells/well density in complete growth medium containing 10% FBS, and incubated for 16 h with serially diluted test compounds in a 37° C. incubator with 5% CO2. Cell viability was tested using CellTiter-Glo® assay (Promega, Madison, Wis.) according to the manufacturer recommendations. Luminescence was determined using an EnVision® Multilabel plate reader 25 min after the addition of detection reagent. IC50 values were then calculated with Xlfit using a logistical 4-parameter fit model in GraphPad Prism (GraphPad Software, San Diego, Calif.) or in Genedata Screener® (Genedata, Basel, Switzerland).
Background: ATP-based viability assays read luminescence as a measure of living cells.

The next experiment deals with T1, recombinant human Mcl-1 (Homo sapiens, UniProt Q07820).
T1 construct: C-terminally 6×His tagged Mcl-1 containing residues 171-327; made in house
T1 sequence (Q07820 171-327): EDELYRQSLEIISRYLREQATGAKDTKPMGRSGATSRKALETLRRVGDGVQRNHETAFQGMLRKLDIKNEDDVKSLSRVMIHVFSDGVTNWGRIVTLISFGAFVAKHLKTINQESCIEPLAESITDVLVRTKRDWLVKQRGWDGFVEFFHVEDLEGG
Put plainly: Cell free Mcl-1:Bim affinity assay (Mcl-1 HTRF, TR-FRET). Type of experiment: binding. Conditions: inhibition of Mcl-1/Bim interaction. As for the experimental part: Cell Free Mcl-1:Bim Affinity Assay (Mcl-1 HTRF)
The inhibition of the Mcl-1/Bim interaction was measured using a time-resolved fluorescence resonance energy transfer (TR-FRET) assay. […] A biotinylated peptide derived from human Bim (residues 51-76) was purchased from CPC Scientific (San Jose, Calif.). The TR-FRET assay was conducted in a 384-well white OptiPlate™ (PerkinElmer, Waltham, Mass.) in a total volume of 40 μL. […] The reaction plates were further incubated overnight and then were read on an Envision® multimode reader (PerkinElmer). […] The IC50 values of test compounds were determined from duplicate data by analyzing competition curves using a four-parameter sigmoidal model in GraphPad Prism (GraphPad Software, San Diego, Calif.) or in Genedata Screener® (Genedata, Basel, Switzerland).

For experiment [1], the target named is T2, Mcl-1/Bak protein-protein interactions (Homo sapiens, UniProt Q07820).
T2 construct: expressed in transfected cells; host or cells: HEK 293 M cells, transient transfection
T2 sequence (Q07820 whole entry): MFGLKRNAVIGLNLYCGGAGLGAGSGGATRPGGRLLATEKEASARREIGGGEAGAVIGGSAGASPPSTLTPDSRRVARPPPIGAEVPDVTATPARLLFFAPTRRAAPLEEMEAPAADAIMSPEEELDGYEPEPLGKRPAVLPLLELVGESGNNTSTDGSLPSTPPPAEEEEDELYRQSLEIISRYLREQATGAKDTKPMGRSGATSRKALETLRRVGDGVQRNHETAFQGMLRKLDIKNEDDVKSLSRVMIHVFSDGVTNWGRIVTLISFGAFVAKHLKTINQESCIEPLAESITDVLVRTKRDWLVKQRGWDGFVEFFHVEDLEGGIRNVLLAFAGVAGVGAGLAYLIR
Put plainly: Cell-based split luciferase complementation assay. Conditions: HEK 293 M cells, serum-free, 4 h. As for the experimental part:
Cell-Based Assay (Split Luciferase)
A split luciferase complementation assay was developed to determine the inhibition of Mcl-1/Bak protein-protein interactions in cells. […] Transient transfection was performed using Lipofectamine® LTX/Plus™ reagent (Life Technologies, Grand Island, N.Y.). 24 h after transfection, cells were collected using non-enzyme based cell dissociation buffer StemPro® Accutase® (Life Technologies), and resuspended in serum-free Opti-MEM® (Life Technologies). Cells were then seeded into assay plates with serially diluted test compounds in 0.3% DMSO at density of a 5000 cells/well. Cells were then incubated for 4 h at 37° C. in a cell culture incubator supplement with 5% CO2. Test plates were equilibrated to room temperate for 30 min before addition of 30 μL Steady-Glo® Luciferase assay reagent (Promega, Madison, Wis.) into each test well. Luminescence was determined using an EnVision® Multilabel plate reader 25 min after the addition of detection reagent. IC50 values were then calculated with Xlfit using a logistical 4-parameter fit model in GraphPad Prism (GraphPad Software, San Diego, Calif.) or in Genedata Screener® (Genedata, Basel, Switzerland).

Experimental findings from patent publication US11685747B2, “Compounds that inhibit MCL-1 protein” (AMGEN INC., priority 2014, dated 2023) are described below.

As usually defined, the IC50 is the concentration that inhibits the measured activity by half.

The structures appear in SMILES notation.

For `CO[C@H]1/C=C/C[C@H](C)CS(=O)(=O)NC(=O)c2ccc3c(c2)N(C[C@@H]2CC[C@H]21)C[C@@]1(CCCc2cc(Cl)ccc21)CO3` (single isomer, unassigned) [Example 31], the values for the IC50 (in the experiment with OPM-2 (16 h); on recombinant human Mcl-1; in experiment [1]) were 3.56 µM, 0.0058 µM and 0.543 µM, respectively.
In the case of `C[C@@H]1[C@@H](C)CCC[C@H](O)[C@@H]2CC[C@H]2CN2C[C@@]3(CCCc4cc(Cl)ccc43)COc3ccc(cc32)C(=O)NS1(=O)=O` [Example 6, (1S,3′R,6′R,7′S,11′S,12′R)-6-Chloro-7′-Hydroxy-11′,12′-Dimethyl-3,4-Dihydro-2H,15′H-Spiro[Naphthalene-1,22′-[20]Oxa[13]Thia[1,14]Diazatetracyclo[14.7.2.0^3,6.0^19,24]Pentacos A[16,18,24]Trien]-15′-One 13′,13′-Dioxide], the IC50 is 0.395 µM in the experiment with OPM-2 (Homo sapiens, OPM-2, 16 h); 0.000447 µM at recombinant human Mcl-1; 0.0575 µM in experiment [1].
Consider `C[C@H]1C/C=C/[C@H](O)[C@@H]2CC[C@H]2CN2C[C@@]3(CCCc4cc(Cl)ccc43)COc3ccc(cc32)C(=O)NS(=O)(=O)[C@@H]1CC1CC1` (single isomer, unassigned) [Example 61], for which the results for the IC50 (in the experiment on OPM-2 (16 h); at recombinant human Mcl-1; in experiment [1]) were 1.32 µM, 0.00267 µM and 0.0687 µM, respectively.
As for `C[C@H]1C/C=C/[C@H](O)[C@@H]2CC[C@H]2CN2C[C@@]3(CCCc4cc(Cl)ccc43)COc3ccc(cc32)C(=O)NS(=O)(=O)[C@@H]1C1CCC1` (single isomer, unassigned) [Example 57], the 50% inhibitory concentration (IC50) in the experiment on OPM-2 (16 h) is 2.4 µM; on recombinant human Mcl-1, 0.00215 µM; in experiment [1], 0.375 µM.
Turning to `CC1(C)C/C=C/[C@H](O)[C@@H]2CC[C@H]2CN2C[C@@]3(CCCc4cc(Cl)ccc43)COc3ccc(cc32)C(=O)NS(=O)(=O)C1` [Example 1, (1S,3′R,6′R,7′S,8′E)-6-Chloro-7′-Hydroxy-11′,11′-Dimethyl-3,4-Dihydro-2H,15′H-Spiro[Naphthalene-1,22′-[20]Oxa[13]Thia[1,14]Diazatetracyclo[14.7.2.0^3,6.0^19,24]Pentacos A[8,16,18,24]Tetraen]-15′-One 13′,13′-Dioxide], the concentration for half-maximal inhibition (IC50) worked out at 1.88 µM with OPM-2 (Homo sapiens, OPM-2, 16 h); 0.000852 µM on recombinant human Mcl-1; 0.163 µM in experiment [1].
In the case of `C[C@H]1C/C=C/[C@H](O)[C@@H]2CC[C@H]2CN2C[C@@]3(CCCc4cc(Cl)ccc43)COc3ccc(cc32)C(=O)NS(=O)(=O)[C@@H]1C1CCC1` (single isomer, unassigned) [Example 55], the 50% inhibitory concentration (IC50) in the experiment on OPM-2 (16 h) stood at 8.69 µM; on recombinant human Mcl-1, 0.0152 µM; in experiment [1], 0.863 µM.
Take `COCCO[C@H]1/C=C/C[C@@H](C)CS(=O)(=O)NC(=O)c2ccc3c(c2)N(C[C@@H]2CC[C@H]21)C[C@@]1(CCCc2cc(Cl)ccc21)CO3` (single isomer, unassigned) [Example 77]: the values for the 50% inhibitory concentration (IC50) (in the experiment on OPM-2 (16 h); at recombinant human Mcl-1; in experiment [1]) were 3.16 µM, 0.00613 µM and 0.26 µM, respectively.
For `C[C@@H]1C/C=C/[C@H](O)[C@@H]2CC[C@H]2CN2C[C@@]3(CCCc4cc(Cl)ccc43)COc3ccc(cc32)C(=O)NS(=O)(=O)[C@H]1CC1CCC1` (single isomer, unassigned) [Example 64] the same measures were 8.63 µM, 0.0136 µM and 0.318 µM.
For `COCCO[C@H]1/C=C/C[C@H](C)[C@@H](C)S(=O)(=O)NC(=O)c2ccc3c(c2)N(C[C@@H]2CC[C@H]21)C[C@@]1(CCCc2cc(Cl)ccc21)CO3` [Example 74, (1S,3′R,6′R,7′S,8′E,11′S,12′R)-6-Chloro-7′-(2-Methoxyethoxy)-11′,12′-Dimethyl-3,4-Dihydro-2H,15′H-Spiro[Naphthalene-1,22′-[20]Oxa[13]Thia[1,14]Diazatetracyclo[14.7.2.0^3,6.0^19,24]Pentacosa[8,16,18,24]Tetraen]-15′-One-13′, 13′-Dioxide], the IC50 stood at 1.74 µM in the experiment with OPM-2 (Homo sapiens, OPM-2, 16 h); 0.00222 µM at recombinant human Mcl-1; 0.273 µM in experiment [1].
`C[C@H]1C/C=C/[C@H](O)[C@@H]2CC[C@H]2CN2C[C@@]3(CCCc4cc(Cl)ccc43)COc3ccc(cc32)C(=O)NS(=O)(=O)[C@@H]1C1CC1` (single isomer, unassigned) [Example 46]: the 50% inhibitory concentration (IC50) was 0.334 µM in the experiment on OPM-2 (16 h), 0.000728 µM at recombinant human Mcl-1 and 0.0783 µM in experiment [1].
For `CC1(C)CCCC[C@H](O)[C@@H]2CC[C@H]2CN2C[C@@]3(CCCc4cc(Cl)ccc43)COc3ccc(cc32)C(=O)NS1(=O)=O` [Example 42], the IC50 at recombinant human Mcl-1 amounted to 0.00755 µM; in experiment [1] it was 0.85 µM.
As for `CO[C@H]1/C=C/C[C@H](C)[C@@H](C)S(=O)(=O)NC(=O)c2ccc3c(c2)N(C[C@@H]2CC[C@H]21)C[C@@]1(CCCc2cc(Cl)ccc21)CO3` [Example 4, (1S,3′R,6′R,7′S,8′E,11′S,12′R)-6-Chloro-7′-Methoxy-11′,12′-Dimethyl-3,4-Dihydro-2H,15′H-Spiro[Naphthalene-1,22′-[20]Oxa[13]Thia[1,14]Diazatetracyclo[14.7.2.0^3,6.0^19,24]Pentacos A[8,16,18,24]Tetraen]-15′-One-13′, 13′-Dioxide], 0.236 µM corresponded to half-maximal inhibition in the experiment on OPM-2 (Homo sapiens, 16 h) (IC50).
In the case of `C[C@@H]1CCC[C@H](O)[C@@H]2CC[C@H]2CN2C[C@@]3(CCCc4cc(Cl)ccc43)COc3ccc(cc32)C(=O)NS(=O)(=O)[C@H]1C` (single isomer, unassigned) [Example 36], the concentration for half-maximal inhibition (IC50) on recombinant human Mcl-1 amounted to 0.0445 µM; in experiment [1], 1.5 µM.
`CO[C@H]1/C=C\C[C@H](C)[C@@H](C)S(=O)(=O)NC(=O)c2ccc3c(c2)N(C[C@@H]2CC[C@H]21)C[C@@]1(CCCc2cc(Cl)ccc21)CO3` [Example 5, (1S,3′R,6′R,7′S,8′Z,11′S,12′R)-6-Chloro-7′-Methoxy-11′,12′-Dimethyl-3,4-Dihydro-2H,15′H-Spiro[Naphthalene-1,22′-[20]Oxa[13]Thia[1,14]Diazatetracyclo[14.7.2.0^3,6.0^19,24]Pentacos A[8,16,18,24]Tetraen]-15′-One 13′,13′-Dioxide] had an IC50 in the experiment with OPM-2 (Homo sapiens, OPM-2, 16 h) of 1.14 µM.
Take `C[C@H]1CCC[C@H](O)[C@@H]2CC[C@H]2CN2C[C@@]3(CCCc4cc(Cl)ccc43)COc3ccc(cc32)C(=O)NS(=O)(=O)C1` (single isomer, unassigned) [Example 38]: it took 1.04 µM to reach half-maximal inhibition in experiment [1] (IC50).
As to `C[C@H]1CCC[C@H](O)[C@@H]2CC[C@H]2CN2C[C@@]3(CCCc4cc(Cl)ccc43)COc3ccc(cc32)C(=O)NS(=O)(=O)[C@H]1C` [Example 37, (1S,3′R,6′R,7′S,11′S,12′S)-6-Chloro-7′-Hydroxy-11,12′-Dimethyl-3,4-Dihydro-2H,15′H-Spiro[Naphthalene-1,22′-[20]Oxa[13]Thia[1,14]Diazatetracyclo[14.7.2.0^3,6.0^19,24]Pentacos A[16,18,24]Trien]-15′-One 13′,13′-Dioxide], the IC50 in the experiment on OPM-2 (Homo sapiens, OPM-2, 16 h) was determined as 5.74 µM; in experiment [1], 0.667 µM.
Consider `CC[C@H]1CC/C=C/[C@H](O)[C@@H]2CC[C@H]2CN2C[C@@]3(CCCc4cc(Cl)ccc43)COc3ccc(cc32)C(=O)NS1(=O)=O` (single isomer, unassigned) [Example 19], for which, in the experiment with OPM-2 (Homo sapiens, OPM-2, 16 h), the IC50 was found to be 3.99 µM.
Turning to `CC[C@H]1CCCC[C@H](O)[C@@H]2CC[C@H]2CN2C[C@@]3(CCCc4cc(Cl)ccc43)COc3ccc(cc32)C(=O)NS1(=O)=O` [Example 23, (1S,3′R,6′R,7′S,12′S)-6-Chloro-12′-Ethyl-7′-Hydroxy-3,4-Dihydro-2H,15′H-Spiro[Naphthalene-1,22′-[20]Oxa[13]Thia[1,14]Diazatetracyclo[14.7.2.0^3,6.0^19,24]Pentacos A[16,18,24]Trien]-15′-One 13′,13′-Dioxide], the results for the IC50 (at recombinant human Mcl-1; in experiment [1]) were 0.00368 µM and 0.372 µM, respectively.
Take `C[C@@H]1CCC[C@H](O)[C@@H]2CC[C@H]2CN2C[C@@]3(CCCc4cc(Cl)ccc43)COc3ccc(cc32)C(=O)NS(=O)(=O)C1` (single isomer, unassigned) [Example 39]: the concentration for half-maximal inhibition (IC50) at recombinant human Mcl-1 came out at 0.0107 µM.
In the experiment on OPM-2 (Homo sapiens, OPM-2, 16 h), `CC[C@@H]1CC/C=C/[C@H](O)[C@@H]2CC[C@H]2CN2C[C@@]3(CCCc4cc(Cl)ccc43)COc3ccc(cc32)C(=O)NS1(=O)=O` (single isomer, unassigned) [Example 17] showed a 50% inhibitory concentration (IC50) of 0.26 µM.
`CC[C@@H]1CC/C=C\[C@H](O)[C@@H]2CC[C@H]2CN2C[C@@]3(CCCc4cc(Cl)ccc43)COc3ccc(cc32)C(=O)NS1(=O)=O` (single isomer, unassigned) [Example 18] registered an IC50 with OPM-2 (Homo sapiens, OPM-2, 16 h) of 0.694 µM.
